According to PubChem BioAssay (NCI):
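Values below derive from 48-hour exposures of cells grown in 96-well plates, with endpoints linearly interpolated between the two concentrations bracketing the appropriate inhibition level. Here, GI50 denotes the concentration required for 50% inhibition of growth. TGI: concentration producing complete growth inhibition.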

Columns and labels:
Experiment in all cases: NCI-60 cell line screen, 48 h
HCC-2998 colon = test system: HCC-2998 colon
CAKI-1 renal = test system: CAKI-1 renal
HL-60(TB) leukemia = test system: HL-60(TB) leukemia
A498 renal = test system: A498 renal
SNB-78 CNS = test system: SNB-78 CNS
SNB-75 CNS = test system: SNB-75 CNS
DMS 114 small cell lung = test system: DMS 114 small cell lung
MALME-3M melanoma = test system: MALME-3M melanoma
M19-MEL melanoma = test system: M19-MEL melanoma
KM20L2 colon = test system: KM20L2 colon
UACC-62 melanoma = test system: UACC-62 melanoma

| SMILES | TGI (HCC-2998 colon) [µM] | TGI (CAKI-1 renal) [µM] | TGI (HL-60(TB) leukemia) [µM] | TGI (A498 renal) [µM] | TGI (SNB-78 CNS) [µM] | TGI (SNB-75 CNS) [µM] | TGI (DMS 114 small cell lung) [µM] | TGI (MALME-3M melanoma) [µM] | TGI (M19-MEL melanoma) [µM] | TGI (KM20L2 colon) [µM] | TGI (UACC-62 melanoma) [µM] | GI50 (HCC-2998 colon) [µM] | GI50 (HL-60(TB) leukemia) [µM] | GI50 (KM20L2 colon) [µM] | GI50 (A498 renal) [µM] | GI50 (SNB-78 CNS) [µM] | GI50 (SNB-75 CNS) [µM] | GI50 (MALME-3M melanoma) [µM] | GI50 (UACC-62 melanoma) [µM] |
| --- | --- | --- | --- | --- | --- | --- | --- | --- | --- | --- | --- | --- | --- | --- | --- | --- | --- | --- | --- |
| CN(C)C(=S)/N=c1\ssc(=Nc2ccccc2)n1-c1ccccc1 | 68.9 | 75.6 | > 100 | > 100 | 79.7 | 36.5 | 29.8 | > 100 | > 100 | – | – | – | – | – | – | – | – | – | – |
| COc1ccc(OCC(=O)O)c2c1CCC(C)C2=O (stereo unspecified) | > 100 | > 100 | > 100 | > 100 | > 100 | – | > 100 | > 100 | > 100 | > 100 | > 100 | – | – | – | – | – | – | – | – |
| Cc1cccc(C=NC23CC4CC(CC(C4)C2)C3)c1 | > 100 | > 100 | > 100 | > 100 | > 100 | > 100 | > 100 | > 100 | > 100 | > 100 | > 100 | – | – | – | – | – | – | – | – |
| O=C(Nc1ccccc1)N1C(c2ccccc2)=N[C@@H](c2ccccc2)[C@@H]1c1ccccc1 | 35.2 | 48.7 | 46.5 | 35.8 | > 100 | 53.5 | 29.9 | 34.7 | 38.7 | 37.3 | 34.7 | – | – | – | – | – | – | – | – |
| N.N.N.N.O=S([O-])[O-].[Co+3].[N-]=[N+]=[N-] | > 100 | – | > 100 | > 100 | > 100 | > 100 | – | > 100 | – | > 100 | > 100 | > 100 | > 100 | > 100 | > 100 | > 100 | 70.4 | > 100 | > 100 |
| CCOC(=N)CC(=O)Nc1ccccc1CC | > 100 | > 100 | > 100 | > 100 | > 100 | > 100 | – | > 100 | > 100 | > 100 | > 100 | – | – | – | – | – | – | – | – |
| C[C@@H]1CC2(C[C@@H](C)C3[C@@H](CC4(C)CCCC5C6=CC(O)(CC[C@]34C)OC6=CC(=O)OC5(C)C)O2)OC1=O (stereo partly specified) | > 100 | – | > 100 | – | – | > 100 | > 100 | > 100 | – | – | > 100 | – | – | – | – | – | – | – | – |
| C=C(c1ccccc1)c1cc2c(=O)[nH]ccc2n1C | > 100 | > 100 | 38.1 | – | > 100 | 45.6 | 50.1 | > 100 | > 100 | 59.7 | > 100 | – | – | – | – | – | – | – | – |
| O=C(Cc1nc2ccccc2s1)C(=O)Nc1cccc(C(F)(F)F)c1 | > 100 | > 100 | > 100 | > 100 | > 100 | > 100 | > 100 | > 100 | > 100 | > 100 | > 100 | – | – | – | – | – | – | – | – |
| O=C(O)C1CC2C=CCC(C2)C1 (stereo unspecified) | – | > 100 | > 100 | – | > 100 | > 100 | > 100 | > 100 | > 100 | > 100 | > 100 | – | – | – | – | – | – | – | – |
| C/C(=C\c1ccccc1)C(=O)c1c(C)cc(C)cc1C | – | > 100 | > 100 | – | – | > 100 | > 100 | > 100 | > 100 | > 100 | > 100 | – | – | – | – | – | – | – | – |
| Cn1cnnc1Sc1c([N+](=O)[O-])nc(-c2ccc([N+](=O)[O-])cc2)n1C | 31.8 | > 100 | – | > 100 | 35.6 | 87.5 | 32.4 | 29.5 | 32.3 | – | 30.4 | – | – | – | – | – | – | – | – |
| Cc1nc(Nc2ccc(Cl)cc2)sc1C(=O)Nc1cccc2c(=O)[nH][nH]c(=O)c12 | > 100 | > 100 | 45.2 | 59.4 | > 100 | 83.4 | 61.9 | 80.3 | 84.4 | 41.2 | 16.4 | – | – | – | – | – | – | – | – |
| BrCc1ccc2ccc3ccc(CBr)nc3c2n1 | 8.73 | 12.7 | 5.28 | 8.38 | 4.43 | 6.69 | 15.4 | – | 14.1 | 29.3 | > 37.8 | – | – | – | – | – | – | – | – |
| Nc1ccc(C(=O)N/C(=C\c2ccc3c(c2)OCO3)c2nc3ccccc3s2)cc1 | 27.9 | 29.7 | – | – | 30.5 | – | – | – | 32.6 | 28.7 | 33.2 | – | – | – | – | – | – | – | – |
| COc1ccccc1/C=C(\NC(=O)c1ccccc1)c1nc2ccccc2[nH]1 | – | > 100 | – | > 100 | > 100 | > 100 | > 100 | > 100 | > 100 | > 100 | > 100 | – | – | – | – | – | – | – | – |
| NCCOCCOCC(=O)O | > 100 | > 100 | – | – | > 100 | > 100 | > 100 | > 100 | > 100 | > 100 | > 100 | – | – | – | – | – | – | – | – |
| COc1cccc(C=NC23CC4CC(CC(C4)C2)C3)c1 | > 100 | > 100 | > 100 | > 100 | > 100 | > 100 | – | > 100 | > 100 | > 100 | > 100 | – | – | – | – | – | – | – | – |
| COC(=O)C1=C(O)c2cc(OC)c(OC)c(OC)c2C(c2ccc3c(c2)OCO3)[C@@H]1C(=O)OC (stereo partly specified) | 31.7 | > 100 | 5.49 | 19.2 | > 100 | > 100 | 5.96 | > 100 | – | 6.43 | > 100 | – | – | – | – | – | – | – | – |
| COc1c2c(c(O)c3c4c(c(C)cc13)C1OC3(C(OC)OC5CC(C)(O)C(OC6CC(C)(O)C(O)C(C)O6)C(C)O5)OC1C(OC)(O4)C31CO1)C(=O)C(O)CC2OC1CC(C)(O)C(OC(C)=O)C(C)O1 (stereo unspecified) | < 0.01 | 2.71 | < 0.01 | – | < 0.0448 | < 0.01 | < 0.01 | < 0.01 | < 0.01 | – | < 0.01 | – | – | – | – | – | – | – | – |
| O=C1N=C2N=C(c3ccc(Cl)cc3)N(c3ccc(Cl)cc3)N2Sc2ccccc21 | > 100 | > 100 | > 100 | > 100 | > 100 | > 100 | > 100 | > 100 | > 100 | > 100 | > 100 | – | – | – | – | – | – | – | – |
| CCOC(=O)C(Cc1cc(OC)c(CC(C(=O)OCC)C(=O)OCC)cc1OC)C(=O)OCC | > 100 | > 100 | > 100 | > 100 | > 100 | 57.6 | > 100 | > 100 | > 100 | > 100 | > 100 | – | – | – | – | – | – | – | – |
